Experimental findings from patent US20260306525A1, “COMBINATION THERAPY GLUCOCORTICOIDS AND GINSENOSIDE” (FYTAGORAS B.V., priority 2023, published 2026) are described below.

The structures appear in SMILES notation.

Data set [1] relates to fkbp5. The data set is described as follows: qPCR fkbp5 expression in zebrafish larvae. It is filed as in vivo, zebrafish (Danio rerio). As to conditions: for fkbp5 expression, short-term treatment / fkbp5 expression, long-term treatment: beclomethasone 10 μM, Rg1 50 μM or combination; for fkbp5 expression, long-term treatment: 5 days. The procedure:
(§1) […] Groups of 15 larvae were collected in TRIzol reagent (ThermoFisher) and total RNA was isolated using miRNeasy mini kit (Qiagen, Hilden, Germany). For experiments in HeLa cells, cells were seeded in 6 well plates and after treatment, the cells were removed from the wells using TRIzol reagent and mRNA was isolated using miRNeasy mini kit (Qiagen) according to the manufacturer's instructions. The RNA samples were DNAse-treated utilizing the DNA-free™ DNA Removal Kit (ThermoFisher Scientific). The cDNA synthesis was performed using the iScript cDNA synthesis kit (Bio-Rad Laboratories, Hercules, CA, USA) using 1 μg of RNA per sample. For qPCR, 10 μM of forward primer and 10 μM of reverse primer, 12.5 μl of IQ SYBR Green Supermix (Bio-Rad Laboratories), and 2 μl of cDNA were added to the qPCR reaction mixture. […] The qPCR reactions were performed on a MyiQ-single-color real-time PCR detection system (Bio-Rad Laboratories), with initial denaturation for 3 min, 95° C., and 40 cycles of 15 s at 95.5° C., 15 s at 60° C., and 30 s at 72° C. Cycle threshold values (Ct values, i.e. the cycle numbers at which a threshold value of the fluorescence intensity was reached) were determined for each sample. The gene expression level for each sample was normalized using the expression of ppial (peptidylprolyl isomerase Ab (cyclophilin A)) for zebrafish samples, and 18S rRNA for human cells. The fold change per sample (compared to the respective control group) was calculated using the […]Ct method.
(§2) […] Per sample, groups of 15 larvae were collected in TRIzol reagent (Thermo Fisher Scientific, Waltham, MA, USA), and total RNA was isolated using the miRNeasy mini kit (Qiagen, Hilden, Germany). For similar experiments in Hela cells, cells were seeded in 6 well plates, and after 6 h of chemical treatment, the cells were removed from the wells using TRIzol reagent, and total RNA was isolated using the miRNeasy mini kit according to the manufacturer's instructions. The RNA samples were DNAse-treated utilizing the DNA-free™ DNA Removal Kit (Thermo Fisher Scientific). The cDNA synthesis was performed using the iScript cDNA synthesis kit (Bio-Rad Laboratories, Hercules, CA, USA) using 1 μg of RNA per sample. For the PCR reactions, 10 μM of forward and 10 μM of reverse primer, 12.5 μl of iQ SYBR Green Supermix (Bio-Rad), and 2 μl of cDNA were added to the qPCR reaction mixture. […] The reactions were performed on a MyiQ-single-color real-time PCR detection system (Bio-Rad Laboratories) with initial denaturation for 3 min at 95° C. and 40 cycles of 15 s at 95.5° C., 15 s at 60° C., and 30 s at 72° C. Cycle threshold values (Ct values, i.e. the cycle numbers at which a threshold value of the fluorescence intensity was reached) were determined for each sample. The gene expression level for each sample was normalized using the expression of ppial (peptidylprolyl isomerase Ab (cyclophilin A)) for zebrafish samples, 18S rRNA for human cells. The fold change per sample (compared to the respective control group) was calculated using the ΔΔCt method.
In general terms: Quantitative PCR measures a nucleic acid by following its amplification.

The test system of data set [2] is pck1. The data set is described as follows: qPCR pck1 expression in zebrafish larvae. In kind it is in vivo, zebrafish (Danio rerio). As to conditions: for pck1 expression, short-term treatment / pck1 expression, long-term treatment: 5 dpf, beclomethasone 10 μM, Rg1 50 μM or combination; for pck1 expression, long-term treatment: 5 days. The procedure: as §1, §2
Data set [3] concerns gr. Briefly: Gr transactivation activity in Tg(9xGCRE-HSV.UI23:EGFP)ia20 reporter larvae. It is filed as in vivo, zebrafish (Danio rerio). As to conditions: for GFP fluorescence intensity (Gr transactivation): Example 2, 24 h, 3 dpf. The procedure:
To investigate the Gr transactivation activity in zebrafish larvae, the Tg(9xGCRE-HSV.UI23:EGFP)^ia20 reporter line was used, which expresses enhanced green fluorescent protein (EGFP) under the control of a promoter containing an array of nine GREs. […] The integrated intensity of the EGFP signal in the larvae was determined using ImageJ software.
To investigate the Gr transactivation activity in zebrafish larvae, the Tg(9xGCRE-HSV.UI23:EGFP^ia20) reporter line was used, which expresses enhanced green fluorescent protein (EGFP) under the control of a promoter containing an array of nine GREs. […] The integrated intensity of the EGFP signal in the larvae was determined using ImageJ software.

Data set [4] has as its system zebrafish larvae. Briefly: larval body length. The following applies: for larval length at 5 dpf: 0-5 dpf, 10 μM beclomethasone, 50 μM Rg1 or combination; for larval length: Example 2, 5 dpf.
Protocol: (§3) In experiments in which the length of regenerated tail fin tissue after wounding, or the larval body length, was used as a readout, chemical treatments were started at 2 hours post-fertilization (hpf) and continued until 5 dpf, as indicated (15 larvae per treatment group). During this period, solutions were refreshed daily. For the regeneration experiments, tail fins were amputated at 2 dpf. At 5 dpf, larvae were fixed overnight in 4% PFA at 4° C. For determination of the larval length and the regeneration of the tail fins, larvae were imaged using a LeicaMZ16FA fluorescence stereomicroscope supported by LAS 3.7 software. The length of the entire larva or the newly grown tissue was measured using ImageJ software. The newly grown tissue can be visually distinguished from the old tissue, enabling precise measurement of its length.
Data set [5] deals with zebrafish larvae. Briefly: tail fin regeneration assay. The following applies: for regeneration of amputated tail fin (length of regenerated tissue at 5 dpf): 0-5 dpf, 10 μM beclomethasone or dexamethasone, 50 μM Rg1 or combinations, amputation at 2 dpf; for tissue regeneration of tail fin: Example 2, amputation at 2 dpf, read at 5 dpf; for tissue regeneration upon wounding: Example 2, wounded at 2 dpf (second statement on FIG. 8F).
Protocol: as §3

Data set [6] relates to zebrafish larvae. The data set is described as follows: whole-body glucose measurement of zebrafish larvae. As to conditions: for whole body glucose level: 0-5 dpf, 10 μM beclomethasone, 50 μM Rg1 or combination; for whole-body glucose level: Example 2, non-wounded; for whole-body glucose level / whole-body glucose level upon wounding: 5 dpf; for whole-body glucose level upon wounding: Example 2, wounded at 2 dpf.
Protocol: In each experiment, three biological replicates were used for each treatment group, and the colorimetric assay was performed using technical duplicates.
Tail fin wounding were performed at 2 days post-fertilization (dpf). At 5 dpf, the larvae (15 per sample) were placed in egg water for 1 h and collected in an Eppendorf tube, washed in egg water (3 times for 10 min). Subsequently, 100 μL of ice-cold glucose buffer was added to each sample, and the larvae were homogenized using a BulletBlender® for 3 min at 8,000 rpm. The homogenates were then centrifuged at 4° C. for 8 min at 11,000 rpm and the supernatant was stored at −20° C. Whole-body glucose concentrations were determined using a Glucose Colorimetric Assay kit (Cayman Chemical, Ann Arbor, MI, USA), according to the manufacturer's instructions. In each experiment, three biological replicates were used for each treatment group, and the colorimetric assay was performed using technical duplicates.

Data set [7] concerns zebrafish larvae. The data set is described as follows: whole-body cortisol measurement of zebrafish larvae (ELISA). The following applies: for whole body cortisol level: 0-4 dpf, 10 μM beclomethasone, 50 μM Rg1 or combination; for whole-body cortisol level: Example 2, non-wounded; for whole-body cortisol level / whole-body cortisol level upon wounding: 5 dpf; for whole-body cortisol level upon wounding: Example 2, wounded at 2 dpf. A general note: ELISA stands for enzyme-linked immunosorbent assay.
Protocol: Ethyl acetate was added to the homogenate. The homogenates were then centrifuged at 4° C. for 8 min at 11,000 rpm and the supernatant was collected and vaporized. A volume of 150 μl of 0.2% Bovine serum albumin (Sigma-Aldrich) dissolved in PBS was added to the samples and frozen. Whole-body cortisol levels of the zebrafish larvae were determined by ELISA (Demeditec Diagnostics GmbH, Kiel-Wellsee, Germany), following the manufacturer's instructions. In each experiment, three biological replicates were used for each treatment group, and the ELISA was performed using technical duplicates.
Tail fin wounding were performed at 2 days post-fertilization (dpf). At 96hpf, the treatments were stopped, and larvae were incubated in egg water until 5 dpf to avoid cross-reactivity between the compounds and the cortisol antibody used in the ELISA. At dpf, the larvae were collected in an Eppendorf tube (30 larvae per sample), and 100 μl of ice-cold egg water was added. After the excess water had been taken out, the samples were glaciated in ethanol (EtOH)/dry-ice bath. Subsequently, the larvae were homogenized using a BulletBlender® for 3 min at 8,000 rpm. Ethyl acetate was added to the homogenate. The homogenates were then centrifuged at 4° C. for 8 min at 11,000 rpm, and the supernatant was collected and vaporized. A volume of 150 μl of 0.2% bovine serum albumin (Sigma-Aldrich) dissolved in PBS was added to the samples and frozen. Whole-body cortisol levels of the zebrafish larvae were determined using a Cortisol free in Saliva ELISA kit (Demeditec Diagnostics GmbH, Kiel-Wellsee, Germany), following the manufacturer's instructions. In each experiment, three biological replicates were used for each treatment group, and the ELISA was performed using technical duplicates.

Setting [8] is: 3 dpf, wounded larvae, 6 h, 10 μM beclomethasone, 50 μM Rg1 or combination.
Where [9] appears, read: beclomethasone 0.1, 1, 5, 10, 15 μM without or with 50 μM Rg1.

Regarding `CC(C)=CCC[C@](C)(O[C@@H]1O[C@H](CO)[C@@H](O)[C@H](O)[C@H]1O)[C@H]1CC[C@]2(C)[C@@H]1[C@H](O)C[C@@H]1[C@@]3(C)CC[C@H](O)C(C)(C)[C@@H]3[C@@H](O[C@@H]3O[C@H](CO)[C@@H](O)[C@H](O)[C@H]3O)C[C@]12C` [Rg1, (3β,6α, 12β)-3,12-Dihydroxydammar-24-ene-6,20-diyl bis-β-D-glucopyranoside], the fkbp5 expression entry in data set [1] (setting [8]) is on record as “did not affect the expression of these genes”. For the same molecule, the “fkbp5 expression, short-term treatment” value in data set [1] (6 h) is recorded as “did not affect the expression of the genes”. Besides, in data set [1], the “fkbp5 expression, long-term treatment” value was “did not affect the expression of the genes”. The fkbp5 expression result in data set [1] (Example 2, 6 h treatment) is on record as “did not increase the expression”. For the same molecule, the pck1 expression entry in data set [2] (setting [8]) is listed as “did not affect the expression of these genes”. Also, the “pck1 expression, short-term treatment” value in data set [2] (6 h) is listed as “did not affect the expression of the genes”. In addition, the “pck1 expression, long-term treatment” value in data set [2] is reported as “did not affect the expression of the genes”. In addition, the pck1 expression entry in data set [2] (Example 2, 6 h treatment) was “did not increase the expression”. In addition, the “relative EGFP intensity (Gr transactivation)” value in data set [3] (24 h from 2 dpf, 10 μM GC, 50 μM Rg1 or combination) is “did not affect the EGFP signal”. Also, in data set [3], the “GFP fluorescence intensity (Gr transactivation)” value (“GFP fluorescence intensity” for short) is “none of the ginsenosides PPT, F1, Rh1, and Rg1 altered the fluorescence intensity”. Also, in data set [4], the “larval length at 5 dpf” value was “did not affect the larval length” and the larval length entry was “did not show any side effects”. Moreover, in data set [5], the “regeneration of amputated tail fin (length of regenerated tissue at 5 dpf)” value is reported as “did not affect the regenerative process”, the “tissue regeneration of tail fin” value is on record as “did not show any side effects” and the “tissue regeneration upon wounding” value is on record as “still not show any effect on the glucose or cortisol level or on tissue regeneration”. Also, in data set [6], the “whole body glucose level” value is “did not affect the whole-body glucose and cortisol concentrations”; the whole-body glucose level result is “did not show any side effects”; the “whole-body glucose level upon wounding” value is “still not show any effect on the glucose or cortisol level or on tissue regeneration”. Further, in data set [7], the “whole body cortisol level” value was “did not affect the whole-body glucose and cortisol concentrations”; the whole-body cortisol level result is given as “did not show any side effects”; the “whole-body cortisol level upon wounding” value is given as “still not show any effect on the glucose or cortisol level or on tissue regeneration”.
As to `CC(C)=CCC[C@](C)(O)[C@H]1CC[C@]2(C)[C@@H]1[C@H](O)C[C@@H]1[C@@]3(C)CC[C@H](O)C(C)(C)[C@@H]3[C@@H](O[C@@H]3O[C@H](CO)[C@@H](O)[C@H](O)[C@H]3O)C[C@]12C` [Rh1], in data set [1] (Example 2, 6 h treatment), the fkbp5 expression result is “did not increase the expression”. In addition, in data set [2] (Example 2, 6 h treatment), the pck1 expression result is reported as “did not increase the expression”. Also, the “GFP fluorescence intensity” value in data set [3] is “none of the ginsenosides PPT, F1, Rh1, and Rg1 altered the fluorescence intensity”. The larval length result in data set [4] was “did not show any side effects”. In data set [5], the “tissue regeneration of tail fin” value is “did not show any side effects” and the “tissue regeneration upon wounding” value is listed as “still not show any effect on the glucose or cortisol level or on tissue regeneration”. In data set [6], the whole-body glucose level result is recorded as “did not show any side effects” and the “whole-body glucose level upon wounding” value is “still not show any effect on the glucose or cortisol level or on tissue regeneration”. Moreover, in data set [7], the whole-body cortisol level result was “did not show any side effects” and the “whole-body cortisol level upon wounding” value is “still not show any effect on the glucose or cortisol level or on tissue regeneration”.
For the molecule `C[C@H]1C[C@H]2[C@@H]3CCC4=CC(=O)C=C[C@]4(C)[C@@]3(Cl)[C@@H](O)C[C@]2(C)[C@@]1(O)C(=O)CO` [beclomethasone, reference compound], the fkbp5 expression result in data set [1] (setting [8]) is “upregulated the expression of pck1 and fkbp5”. Also, the “fkbp5 expression, short-term treatment” value in data set [1] (6 h) is given as “upregulated the expression”. Further, the “fkbp5 expression, long-term treatment” value in data set [1] is recorded as “the upregulation of fkbp5 did not decrease”. For the same molecule, in data set [2] (setting [8]), the pck1 expression entry is “upregulated the expression of pck1 and fkbp5”. Besides, the “pck1 expression, short-term treatment” value in data set [2] (6 h) is “upregulated the expression”. Also, the “pck1 expression, long-term treatment” value in data set [2] is “this upregulation of pck1 and nfkbiaa was significantly reduced after long-term treatment”. Besides, in data set [3], the “GFP fluorescence intensity” value is on record as “significant increase in the GFP signal throughout the body of the larvae”. Also, in data set [4], the “larval length at 5 dpf” value is “significantly decreased” and the larval length result is “decrease in larval length”. In data set [5], the “regeneration of amputated tail fin (length of regenerated tissue at 5 dpf)” value is given as “inhibited the regeneration” and the “tissue regeneration of tail fin” value is reported as “inhibited the tissue regeneration”. Further, in data set [6], the “whole body glucose level” value was “elevated whole body glucose” and the whole-body glucose level result is reported as “increase in the glucose level”. For the same molecule, the “dose-response of whole-body glucose level” value in data set [6] (setting [9]) is “dose-dependent effect”. In data set [7], the “whole body cortisol level” value is on record as “reduced whole body cortisol levels” and the whole-body cortisol level result was “decrease in cortisol level”. Besides, the “dose-response of whole-body cortisol level” value in data set [7] (setting [9]) is “dose-dependent effect”.
